Data: patent US5536822A, “γ-phosphate linked adenosine 5' triphosphate sepharose” (University of Virginia Alumni Patents Foundation, priority 1994, dated 1996)

Legend:
[1] = system: four different protein kinases, namely, p42^mapk, cyclic-A kinase, MAPKK and p60^c-arc; test: Inhibition of four protein kinases by the ATP derivative (summary over all enzymes); type: biochemical
Method: The 42-kDa MAP kinase (p42^mapk) and MAPKK were assayed as described previously (Haystead et al. (1992) FEBS. Lett., 306:17-22). The cyclic-A kinase assays (30 μl) included 1 μg cyclic-A kinase, 2 mM Kemptide, 50 mM Hepes, pH 7.4, 1 mM dithiothreitol, 200 μM ATP, 5 mM MgCl2. Reactions were terminated by spotting 25 μl assay mixture onto P81 paper as described in Haystead et al. (1992) FEBS Lett., 306:17-22. p60^c-arc assays were similar, except a 2 mM peptide (Rossomando et al., 1992) Proc. Natl. Acad. Sci., 89:5221-5225) was used as the substrate.
(§1) In order to assess the effectiveness of adenosine 5'-(γ-4-aminophenyl)triphosphate as an affinity ligand for protein kinases, the inhibition constants (Ki) of the derivative were determined for four different protein kinases, namely, p42^mapk, cyclic-A kinase, MAPKK and p60^c-arc (Table 1). The Ki was determined in the presence of 20 μM ATP. However, since the Km for ATP varied for each protein kinase tested, for comparative purposes it was convenient to determine the Ki /Km quotient (Table 1). This also facilitated comparisons for the relative binding constants determined with other ATP analogs (Flockhart et al. (1984) Eur. J. Biochem., 140:289-295; Hoppe et al. (1972) Eur. J. Biochem., 80:369-372; Taylor et al. (1990) Peptides and Protein Phosphorylation (Kemp et al.) pp 2-32, CRC Press).

Cyclic A kinase = Cyclic A kinase (Bos taurus, UniProt P00517); test: Inhibition constant of the ATP derivative / Km for ATP, cyclic-A kinase assay (Kemptide substrate)
p42^mapk = target: T1, p42^mapk (Mus musculus, UniProt P63085); test: Inhibition constant of the ATP derivative / Km for ATP, p42^mapk assay; type: biochemical; conditions: 20 μM ATP
T1 construct: made in house
Source text: (§2) [γ-^32 P] ATP was synthesized according to the procedure set forth in Johnson et al., Advances in Cyclic Nucleotide Research, 10:135-167 (1979). The catalytic subunit of cyclic-AMP-dependent protein kinase was purchased from Promega. p60^c-arc was obtained from the Department of Microbiology, University of Virginia. Recombinant p42^mapk was purified as described in Haystead et al., (1992) FEBS Lett., 306:17-22. STE7 antibody was obtained from the University of Vancouver, Canada.
(§3) The 42-kDa MAP kinase (p42^mapk) and MAPKK were assayed as described previously (Haystead et al. (1992) FEBS. Lett., 306:17-22). The cyclic-A kinase assays (30 μl) included 1 μg cyclic-A kinase, 2 mM Kemptide, 50 mM Hepes, pH 7.4, 1 mM dithiothreitol, 200 μM ATP, 5 mM MgCl2. […]
as §1, with “The Ki was determined in the presence of 20 μM ATP. However, since the Km for ATP varied for each protein kinase tested, for comparative purposes it was convenient to determine the Ki /Km quotient (Table 1).” left out

p60^c-src = target: T2, p60^c-src (Homo sapiens, UniProt P12931); test: Inhibition constant of the ATP derivative / Km for ATP, p60^c-src assay (peptide substrate); type: biochemical; conditions: 20 μM ATP
T2 construct: Department of Microbiology, University of Virginia (obtained from; not a purchase)
Source text: as §2, §3
as §1, with “The Ki was determined in the presence of 20 μM ATP. However, since the Km for ATP varied for each protein kinase tested, for comparative purposes it was convenient to determine the Ki /Km quotient (Table 1).” left out

MAPKK = target: T3, MAPKK (Oryctolagus cuniculus, UniProt P29678); test: Inhibition constant of the ATP derivative / Km for ATP, MAPKK assay; type: biochemical, rabbit
T3 construct: MAPKK, from rabbit skeletal muscle, was partially purified 600-fold; from tissue; host or cells: skeletal muscle (back and hind-limb) of a female New Zealand white rabbit
Method: A fed female New Zealand white rabbit was euthanized by lethal injection with phenobarbital via the marginal ear vein. The back and hind-limb skeletal muscle (300 g) were rapidly excised, minced and homogenized at 4° C. with 2.5 vol. solution C (50 mM 2-glycerophosphate, pH 7.3, 1.5 mM EGTA, 0.15 μM sodium orthovanidate, 1 mM dithiothreitol, 1 mM phenylmethanesulfonyl fluoride, 1 mM benzamidine) containing 6 μg/ml leupeptin. All subsequent steps were carried out at 4° C. […] The DEAE was packed into a glass column (20 cm×50 cm) washed with solution C until the absorbance at […] of the eluate was <0.005 absorbance. […]
as §1, with “The Ki was determined in the presence of 20 μM ATP. However, since the Km for ATP varied for each protein kinase tested, for comparative purposes it was convenient to determine the Ki /Km quotient (Table 1).” left out

[2] = [Mg^2+] reduced to levels equimolar with free ATP

T3 sequence (P29678 whole entry): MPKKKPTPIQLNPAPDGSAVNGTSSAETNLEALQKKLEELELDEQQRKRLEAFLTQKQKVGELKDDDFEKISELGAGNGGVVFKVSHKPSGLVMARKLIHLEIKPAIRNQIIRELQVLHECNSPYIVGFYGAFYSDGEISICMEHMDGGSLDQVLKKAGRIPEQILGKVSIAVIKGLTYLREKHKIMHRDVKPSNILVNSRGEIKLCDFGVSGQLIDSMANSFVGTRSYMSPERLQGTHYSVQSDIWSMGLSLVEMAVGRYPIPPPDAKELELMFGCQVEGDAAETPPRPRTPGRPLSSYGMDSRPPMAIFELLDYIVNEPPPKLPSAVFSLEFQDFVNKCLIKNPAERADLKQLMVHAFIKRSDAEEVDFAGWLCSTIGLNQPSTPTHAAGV
T1 sequence (P63085 whole entry): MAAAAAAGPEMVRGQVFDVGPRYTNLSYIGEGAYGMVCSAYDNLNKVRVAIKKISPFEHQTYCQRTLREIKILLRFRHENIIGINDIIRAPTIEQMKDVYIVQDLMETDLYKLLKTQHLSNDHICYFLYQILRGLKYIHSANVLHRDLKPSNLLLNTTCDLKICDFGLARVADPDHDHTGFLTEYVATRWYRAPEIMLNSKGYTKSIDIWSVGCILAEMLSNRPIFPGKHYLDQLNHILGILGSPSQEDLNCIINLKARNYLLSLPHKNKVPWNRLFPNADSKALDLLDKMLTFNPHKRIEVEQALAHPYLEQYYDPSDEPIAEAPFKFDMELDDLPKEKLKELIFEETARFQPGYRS
T2 sequence (P12931 whole entry): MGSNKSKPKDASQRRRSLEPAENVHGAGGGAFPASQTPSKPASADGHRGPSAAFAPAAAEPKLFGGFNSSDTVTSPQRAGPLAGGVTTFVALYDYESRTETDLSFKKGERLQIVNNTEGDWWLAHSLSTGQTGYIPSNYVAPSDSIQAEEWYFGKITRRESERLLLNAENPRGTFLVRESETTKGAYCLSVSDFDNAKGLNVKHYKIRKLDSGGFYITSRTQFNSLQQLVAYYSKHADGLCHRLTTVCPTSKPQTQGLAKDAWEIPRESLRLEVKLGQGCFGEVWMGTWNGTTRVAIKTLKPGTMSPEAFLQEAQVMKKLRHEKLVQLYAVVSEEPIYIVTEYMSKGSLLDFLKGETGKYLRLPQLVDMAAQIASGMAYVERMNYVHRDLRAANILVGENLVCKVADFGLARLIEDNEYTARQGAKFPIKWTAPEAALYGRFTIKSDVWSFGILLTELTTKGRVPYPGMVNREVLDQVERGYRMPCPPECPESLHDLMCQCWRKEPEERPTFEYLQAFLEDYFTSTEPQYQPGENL

For `Nc1ccc(OP(=O)(O)OP(=O)(O)OP(=O)(O)OC[C@H]2O[C@@H](n3cnc4c(N)ncnc43)[C@H](O)[C@@H]2O)cc1` [adenosine-5'-(γ-4-aminophenyl)triphosphate], which “competition with ATP” value ([1]; 20 μM ATP) is on record?
The value was “competes with ATP”.

And the “Ki /Km quotient” value ([1]; 20 μM ATP, range over four enzymes)?
The value was 10-20.

What about the Ki ([1]; 20 μM ATP, range over four enzymes, read-out: apparent Ki values obtained against each enzyme) of the same compound?
Its Ki is 75 to 180 µM.

What about the “effect on the Ki /Km quotient of reduced [Mg^2+]” value [1, 2] of the same compound?
The value was “no effect”.

What about the “effect on the Ki of reduced [Mg^2+]” value [1, 2] of the same compound?
Its value is “no effect”.

And the Ki (Cyclic A kinase)?
The Ki was 104 ± 11.6 µM.

What about the “Ki /Km” value (Cyclic A kinase; cyclic A kinase, 20 μM ATP, Km for ATP) of the same compound?
The value was 14.60.

And the “Ki /Km” value (p42^mapk; Km for ATP)?
Its value is 10.02.

And the Ki (p42^mapk; read-out: Ki ± SDM)?
Its Ki is 75.2 ± 8.2 µM.

What about the “Ki /Km” value (p60^c-src; Km for ATP) of the same compound?
The value was 19.35.

What about the Ki (p60^c-src; read-out: Ki ± SDM) of the same compound?
Its Ki is 120 ± 13.6 µM.

And the Ki (MAPKK)?
Its Ki is 176 ± 22.1 µM.

And the “Ki /Km” value (MAPKK; MAPKK, 20 μM ATP, Km for ATP)?
The value was 15.20.
